Experimental data reported in patent US9802960B2 (MILLENNIUM PHARMACEUTICALS, INC., priority 2014, dated 2017).

Biological target: Human VPS34 (Homo sapiens (Human), UniProt Q8NEB9)
Test: Human VPS34 enzyme assay (Adapta TR-FRET)
Format: biochemical
Settings: compound concentration 1.11 μM; read-out: Percent Inhibition

Sequence of Human VPS34 (Q8NEB9 whole entry): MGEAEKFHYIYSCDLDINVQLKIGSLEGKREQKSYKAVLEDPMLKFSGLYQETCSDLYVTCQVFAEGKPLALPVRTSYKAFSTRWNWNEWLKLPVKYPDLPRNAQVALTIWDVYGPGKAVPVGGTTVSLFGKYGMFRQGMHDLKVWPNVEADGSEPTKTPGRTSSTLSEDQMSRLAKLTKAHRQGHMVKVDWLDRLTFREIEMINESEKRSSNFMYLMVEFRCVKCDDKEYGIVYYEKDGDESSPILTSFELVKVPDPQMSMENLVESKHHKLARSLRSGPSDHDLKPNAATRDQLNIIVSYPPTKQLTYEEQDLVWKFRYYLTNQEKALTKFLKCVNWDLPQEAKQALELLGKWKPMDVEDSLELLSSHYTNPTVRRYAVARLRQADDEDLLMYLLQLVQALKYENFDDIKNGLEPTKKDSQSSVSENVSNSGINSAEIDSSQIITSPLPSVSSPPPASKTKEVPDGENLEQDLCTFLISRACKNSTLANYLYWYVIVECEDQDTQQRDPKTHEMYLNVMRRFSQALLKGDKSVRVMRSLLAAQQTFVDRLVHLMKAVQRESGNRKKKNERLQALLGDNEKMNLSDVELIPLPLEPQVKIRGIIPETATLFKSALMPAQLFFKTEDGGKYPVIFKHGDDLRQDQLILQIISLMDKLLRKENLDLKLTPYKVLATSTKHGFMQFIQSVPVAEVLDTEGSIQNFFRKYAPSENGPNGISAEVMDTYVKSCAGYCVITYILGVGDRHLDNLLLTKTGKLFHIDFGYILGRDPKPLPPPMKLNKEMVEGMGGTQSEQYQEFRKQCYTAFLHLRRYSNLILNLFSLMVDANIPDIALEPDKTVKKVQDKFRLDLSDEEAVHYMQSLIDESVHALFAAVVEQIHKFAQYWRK

inhibition at 1.11 µM	SMILES
> 99%	CC(=O)Nc1cc(-c2cnc(C)c(NS(=O)(=O)C3CC3)c2)ccn1 [Compound I-114, N-{5-[(cyclopropylsulfonyl)amino]-6-methyl-3,4′-bipyridin-2′-yl}acetamide]
68%	CC(=O)Nc1cc(-c2cnc(C)c(NC(=O)c3ccc(F)cc3F)c2)ccn1 [Compound I-115, N-(2′-acetamido-6-methyl-3,4′-bipyridin-5-yl)-2,4-difluorobenzamide]
68%	CC(=O)Nc1cc(-c2cnc3cn[nH]c3c2)ccn1 [Compound I-116, N-[4-(1H-pyrazolo[4,3-b]pyridin-6-yl)pyridin-2-yl]acetamide]
> 99%	O=C(Nc1cc(-c2cnc3[nH]ncc3c2)ccn1)C1CC1 [Compound I-117, N-[4-(1H-pyrazolo[3,4-b]pyridin-5-yl)pyridin-2-yl]cyclopropanecarboxamide]
> 99%	CC(=O)Nc1cc(-c2cncc(S(=O)(=O)N3CCC(F)(F)C3)c2)ccn1 [Compound I-118, N-{5-[(3,3-difluoropyrrolidin-1-yl)sulfonyl]-3,4′-bipyridin-2′-yl}acetamide]
> 99%	CC(=O)Nc1cc(-c2cnc(N)c(S(=O)(=O)N(C)C)c2)ccn1 [Compound I-119, N-[6-amino-5-(dimethylsulfamoyl)-3,4′-bipyridin-2′-yl]acetamide]
> 99%	CCN(CC)S(=O)(=O)c1cncc(-c2ccnc(NC(C)=O)c2)c1 [Compound I-120, N-[5-(diethylsulfamoyl)-3,4′-bipyridin-2′-yl]acetamide]
> 99%	CC(=O)Nc1cc(-c2cnc(N)c(C(=O)Nc3cc(C)cnn3)c2)ccn1 [Compound I-121, 2′-acetamido-6-amino-N-(5-methylpyridazin-3-yl)-3,4′-bipyridine-5-carboxamide]
> 99%	CC(=O)Nc1cc(-c2cnc(N)c(S(=O)(=O)O)c2)ccn1 [Compound I-122, 2′-acetamido-6-amino-3,4′-bipyridine-5-sulfonic acid]
> 99%	COc1cccc(S(=O)(=O)Nc2cc(-c3ccnc(NC(C)=O)c3)cnc2C)c1 [Compound I-123]
91%	CCN(CC)S(=O)(=O)c1cc(-c2ccnc(NC(C)=O)c2)cnc1N [Compound I-124, N-[6-amino-5-(diethylsulfamoyl)-3,4′-bipyridin-2′-yl]acetamide]
> 99%	CC(=O)Nc1cc(-c2cnc(N)c(C(=O)N3Cc4ccccc4C3)c2)ccn1 [Compound I-125, N-[6-amino-5-(1,3-dihydro-2H-isoindoI-2-ylcarbonyl)-3,4′-bipyridin-2′-yl]acetamide]
> 99%	CC(=O)Nc1cc(-c2cnc(N)c(S(=O)(=O)CCc3ccccc3)c2)ccn1 [Compound I-126, N-{6-amino-5-[(2-phenylethyl)sulfonyl]-3,4′-bipyridin-2′-yl}acetamide]
> 99%	COc1ncc(-c2ccnc(NC(C)=O)c2)cc1C(=O)N(C)C [Compound I-127, 2′-acetamido-6-methoxy-N,N-dimethyl-3,4′-bipyridine-5-carboxamide]
> 99%	CC(=O)Nc1cc(-c2cnc(C)c(NS(=O)(=O)c3ccc(C)cc3Cl)c2)ccn1 [Compound I-128]
> 99%	CC(=O)Nc1cc(-c2cnc(C)c(NS(=O)(=O)c3ccc(C)cc3F)c2)c(C)cn1 [Compound I-130, N-(5-{[(2-fluoro-4-methylphenyl)sulfonyl]amino}-5′,6-dimethyl-3,4′-bipyridin-2′-yl)acetamide]
> 99%	CC(=O)Nc1cc(-c2cnc(C)c(NS(=O)(=O)c3ccc(C(C)(C)C)cc3)c2)ccn1 [Compound I-131, N-(5-{[(4-tert-butylphenyl)sulfonyl]amino}-6-methyl-3,4′-bipyridin-2′-yl)acetamide]
> 99%	CNc1ncc(-c2ccnc(NC(C)=O)c2)cc1N1CCCS1(=O)=O [Compound I-132, N-[5-(1,1-dioxidoisothiazolidin-2-yl)-6-(methylamino)-3,4′-bipyridin-2′-yl]acetamide]
> 99%	CC(=O)Nc1cc(-c2cnc(N)c(N(C)S(C)(=O)=O)c2)ccn1 [Compound I-133, N-{6-amino-5-[methyl(methylsulfonyl)amino]-3,4′-bipyridin-2′-yl}acetamide]
> 99%	CC(=O)Nc1cc(-c2cnc(C)c(NS(=O)(=O)c3ccc(C(C)C)cc3)c2)ccn1 [Compound I-134, N-(5-{[(4-isopropylphenyl)sulfonyl]amino}-6-methyl-3,4′-bipyridin-2′-yl)acetamide]
99%	CC(=O)Nc1cc(-c2cnc3ncn(CC4CC4)c3c2)ccn1 [Compound I-135, N-{4-[1-(cyclopropylmethyl)-1H-imidazo[4,5-b]pyridin-6-yl]pyridin-2-yl}acetamide]
> 99%	CC(=O)Nc1cc(-c2cnc(N)c(C(=O)Nc3ccccc3Cl)c2)ccn1 [Compound I-136, 2′-acetamido-6-amino-N-(2-chlorophenyl)-3,4′-bipyridine-5-carboxamide]

inhibition at 1.11 µM	SMILES
> 99%	CC(=O)Nc1cc(-c2cncc(S(=O)(=O)N(C)C)c2)ccn1 [Compound I-137, N-[5-(dimethylsulfamoyl)-3,4′-bipyridin-2′-yl]acetamide]
> 99%	CC(=O)Nc1cc(-c2cnc(N)c(S(=O)(=O)Cc3ccc(F)cc3F)c2)ccn1 [Compound I-138, N-{6-amino-5-[(2,4-difluorobenzyl)sulfonyl]-3,4′-bipyridin-2′-yl}acetamide]
61%	CC(=O)Nc1cc(-c2cncc(N)c2)ccn1 [Compound I-139, N-(5-amino-3,4′-bipyridin-2′-yl)acetamide]
> 99%	CC(=O)Nc1cc(-c2cnc3[nH]ccc3c2)ccn1 [Compound I-140, N-[4-(1H-pyrrolo[2,3-b]pyridin-5-yl)pyridin-2-yl]acetamide]
> 99%	CNc1ncc(-c2ccnc(NC(C)=O)c2)cc1N(CC1CC1)S(C)(=O)=O [Compound I-141, N-{5-[(cyclopropylmethyl)(methylsulfonyl)amino]-6-(methylamino)-3,4′-bipyridin-2′-yl}acetamide]
> 99%	COc1cc(C)ccc1S(=O)(=O)Nc1cc(-c2ccnc(NC(C)=O)c2)cnc1C [Compound I-142, N-(5-{[(2-methoxy-4-methylphenyl)sulfonyl]amino}-6-methyl-3,4′-bipyridin-2′-yl)acetamide]
> 99%	CC(=O)Nc1cc(-c2cnc(C)c(NS(=O)(=O)c3cc(C(F)(F)F)ccc3F)c2)ccn1 [Compound I-143, N-[5-({[2-fluoro-5-(trifluoromethyl)phenyl]sulfonyl}amino)-6-methyl-3,4′-bipyridin-2′-yl]acetamide]
> 99%	CC(=O)Nc1cc(-c2cnc(C)c(NS(=O)(=O)c3ccccc3F)c2)ccn1 [Compound I-144, N-(5-{[(2-fluorophenyl)sulfonyl]amino}-6-methyl-3,4′-bipyridin-2′-yl)acetamide]
> 99%	CCOCCS(=O)(=O)c1cc(-c2ccnc(NC(C)=O)c2)cnc1N [Compound I-145, N-{6-amino-5-[(2-ethoxyethyl)sulfonyl]-3,4′-bipyridin-2′-yl}acetamide]
> 99%	COC(=O)Nc1cc(-c2cnc(C)c(N3CCCS3(=O)=O)c2)ccn1 [Compound I-146, methyl[5-(1,1-dioxidoisothiazolidin-2-yl)-6-methyl-3,4′-bipyridin-2′-yl]carbamate]
> 99%	CNc1ncc(-c2ccnc(NC(C)=O)c2)cc1N(C)S(C)(=O)=O [Compound I-147, N-{6-(methylamino)-5-[methyl(methylsulfonyl)amino]-3,4′-bipyridin-2′-yl}acetamide]
> 99%	CC(=O)Nc1cc(-c2cnc(N)c(S(=O)(=O)NCCc3ccccc3)c2)ccn1 [Compound I-148, N-{6-amino-5-[(2-phenylethyl)sulfamoyl]-3,4′-bipyridin-2′-yl}acetamide]
> 99%	CC(=O)Nc1cc(-c2cnc(N)c(C(=O)N(C)C)c2)ccn1 [Compound I-149, 2′-acetamido-6-amino-N,N-dimethyl-3,4′-bipyridine-5-carboxamide]
> 99%	CC(=O)Nc1cc(-c2cnc(C)c(NS(=O)(=O)c3c(F)cccc3F)c2)ccn1 [Compound I-150, N-(5-{[(2,6-difluorophenyl)sulfonyl]amino}-6-methyl-3,4′-bipyridin-2′-yl)acetamide]
> 99%	CC(=O)Nc1cc(-c2cnc3c(c2)c(S(=O)(=O)N2CCCC2)cn3C)ccn1 [Compound I-151, N-{4-[1-methyl-3-(pyrrolidin-1-ylsulfonyl)-1H-pyrrolo[2,3-b]pyridin-5-yl]pyridin-2-yl}acetamide]
> 99%	CC(=O)Nc1cc(-c2cnc(N)c(C(=O)N3CCOCC3)c2)ccn1 [Compound I-152, N-[6-amino-5-(morpholin-4-ylcarbonyl)-3,4′-bipyridin-2′-yl]acetamide]
> 99%	CC(=O)Nc1cc(-c2cnc(Cl)c(NS(=O)(=O)c3ccc(F)cc3F)c2C)ccn1 [Compound I-153, N-(6-chloro-5-{[(2,4-difluorophenyl)sulfonyl]amino}-4-methyl-3,4′-bipyridin-2′-yl)acetamide]
> 99%	CC(=O)Nc1cc(-c2cnc(C)c(NS(=O)(=O)c3ccc(Cl)cc3)c2)ccn1 [Compound I-154, N-(5-{[(4-chlorophenyl)sulfonyl]amino}-6-methyl-3,4′-bipyridin-2′-yl)acetamide]
> 99%	CC(=O)Nc1cc(-c2cnc(C)c(NS(=O)(=O)c3cccc(F)c3)c2)ccn1 [Compound I-155, N-(5-{[(3-fluorophenyl)sulfonyl]amino}-6-methyl-3,4′-bipyridin-2′-yl)acetamide]
> 99%	CC(=O)Nc1cc(-c2cnc(N)c(S(=O)(=O)N3CCCCC3)c2)ccn1 [Compound I-156, N-[6-amino-5-(piperidin-1-ylsulfonyl)-3,4′-bipyridin-2′-yl]acetamide]
> 99%	CC(=O)Nc1cc(-c2cnc(N)c(C(=O)N3CC[C@@H](F)C3)c2)ccn1 [Compound I-157, N-(6-amino-5-{[(3R)-3-fluoropyrrolidin-1-yl]carbonyl}-3,4′-bipyridin-2′-yl)acetamide]
